Values of other authors, collected in patent publication US12433863B2, “Pharmaceutical compositions and uses directed to lysosomal storage disorders” (INTRABIO LIMITED, priority 2016, dated 2025).

What was measured:
[1] = test system: rat model of an acute unilateral labyrinthectomy; details: Gunther et al. 2015; cited from earlier work
[2] = test system: glycosphingolipid (GSL) biosynthesis; details: Patterson, 2006; cited from earlier work

CC(=O)N[C@@H](CC(C)C)C(=O)O [N-acetyl-L-leucine]
Effect on postural compensation [1]: significant effect

CCCCN1C[C@H](O)[C@@H](O)[C@H](O)[C@H]1CO [miglustat]
Benefit in clinical trial of substrate reduction therapy [2]: some benefit
